Source: PubChem BioAssay (NCI)
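1) Cells in 96-well plates. 2) Compound, 48 h, 5 concentrations. 3) Linear interpolation between surrounding doses. 4) Unreached endpoint = highest concentration. TGI: concentration producing complete growth inhibition.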

Columns and labels:
Assay in all cases: NCI tumour cell line growth inhibition, 48 h
M14 melanoma = test system: M14 melanoma
CCRF-CEM leukemia = test system: CCRF-CEM leukemia
HL-60(TB) leukemia = test system: HL-60(TB) leukemia
SNB-75 CNS = test system: SNB-75 CNS
OVCAR-5 ovarian = test system: OVCAR-5 ovarian
LOX IMVI melanoma = test system: LOX IMVI melanoma
NCI-H522 lung = test system: NCI-H522 lung
CAKI-1 renal = test system: CAKI-1 renal
A498 renal = test system: A498 renal
HCT-15 colon = test system: HCT-15 colon
HCC-2998 colon = test system: HCC-2998 colon
MDA-N = test system: MDA-N
MOLT-4 leukemia = test system: MOLT-4 leukemia
A549 NSCLC = test system: A549 NSCLC
OVCAR-8 ovarian = test system: OVCAR-8 ovarian
COLO 205 colon = test system: COLO 205 colon
SF-539 CNS = test system: SF-539 CNS
UACC-62 melanoma = test system: UACC-62 melanoma
UO-31 renal = test system: UO-31 renal

Row | Structure (SMILES) | TGI (M14 melanoma) [µM] | TGI (CCRF-CEM leukemia) [µM] | TGI (HL-60(TB) leukemia) [µM] | TGI (SNB-75 CNS) [µM] | TGI (OVCAR-5 ovarian) [µM] | TGI (LOX IMVI melanoma) [µM] | TGI (NCI-H522 lung) [µM] | TGI (CAKI-1 renal) [µM] | TGI (A498 renal) [µM] | TGI (HCT-15 colon) [µM] | TGI (HCC-2998 colon) [µM] | TGI (MDA-N) [µM] | TGI (MOLT-4 leukemia) [µM] | TGI (A549 NSCLC) [µM] | TGI (OVCAR-8 ovarian) [µM] | TGI (COLO 205 colon) [µM] | TGI (SF-539 CNS) [µM] | TGI (UACC-62 melanoma) [µM] | TGI (UO-31 renal) [µM]
1 | COc1cc(OC)c(/C=N\Nc2nc3ccccc3c(=O)n2-c2ccccc2)c(OC)c1 | 84.6 | 51.6 | > 100 | > 100 | > 100 | 69.6 | > 100 | 38.3 | 41.1 | > 100 | > 100 | 43.9 | 77.1 | > 78.5 | > 64 | > 100 | 39.3 | 55 | > 81.4
2 | O=C(NC(OCc1ccccc1)(C(F)(F)F)C(F)(F)F)OCc1ccccc1 | 33 | 34.9 | 40.8 | 29 | 27.4 | 27.6 | 26.5 | 27.5 | 31.6 | 26.7 | 28.8 | 28.5 | 38.6 | 28.5 | 30.1 | 31.6 | 31.1 | 27 | 23.3
3 | O=c1c2cc([N+](=O)[O-])ccc2n2n1CCCCC2 | > 100 | > 100 | > 100 | > 100 | > 100 | > 100 | > 100 | > 100 | > 100 | > 100 | > 100 | > 100 | > 100 | > 100 | > 100 | > 100 | > 100 | > 100 | > 100
4 | c1ccc2c(c1)-c1ccccc1C2NC1=NCCO1 | 32.5 | > 100 | 48.5 | 49.5 | > 100 | 48.3 | 51.4 | 80.9 | 34 | 21.3 | 33.3 | 24 | > 100 | > 100 | 57.2 | 41 | 49.6 | 38.9 | 50.7
5 | COc1ccc2nc3cc(Cl)ccc3c(NCCCCCC(=O)NC(COc3ccc4ccc5cccnc5c4n3)COc3ccc4ccc5cccnc5c4n3)c2c1 | 57.7 | 10.5 | 27.2 | 35.4 | 47.9 | > 100 | 81.1 | 95.5 | 31 | > 100 | 28.1 | 45.7 | 12.7 | 50.1 | > 100 | 32.2 | 30.6 | 56.4 | 10.7
6 | CC1(C)N([O-])[N+](=O)C1(C)O (centres undefined) | > 100 | > 100 | > 100 | > 100 | > 100 | > 100 | > 100 | > 100 | > 100 | > 100 | > 100 | > 100 | > 100 | > 100 | > 100 | > 100 | > 100 | > 100 | > 100
